Measurements as given in patent US20050238651A1, “Treatment of inflammatory bowel disease” (priority 2003, published 2005).

Experiments:
[1] = system: indoleamine 2,3-dioxygenase in lamina propria mononuclear cells; assay: IDO expression in cultured colonic lamina propria mononuclear cells incubated with rIFN-γ and/or LPS; type: cell-based, mouse
[2] = system: lymphocytes in lamina propria lymphoid aggregates; assay: BrdU immunohistochemistry of lymphocyte proliferation in lamina propria lymphoid aggregates; type: in vivo, mice; details: 4 days and 6 days after TNBS
Description: Lymphocyte proliferation was determined by BrdU labeling of lamina propria lymphoid aggregates of mice treated with Trinitrobenzene Sulfonic Acid enemas plus subcutaneous pellets containing 1-methyl-tryptophan.
BrdU immunohistochemistry was performed to measure cellular proliferation in hypertrophied lymphoid aggregates within the lamina propria of Trinitrobenzene Sulfonic Acid ±1-methyl-tryptophan treated mice. Mice were given rectal Trinitrobenzene Sulfonic Acid and subcutaneous pellets containing 1-methyl-tryptophan or placebo. Groups of mice were sacrificed at 4 days and 6 days after Trinitrobenzene Sulfonic Acid administration. Each mouse received BrdU two hours prior to sacrifice in order to label the S-phase cells. Four micro paraffin sections were prepared from the inflamed colon segments with macroscopically visible hypertrophied colonic patches then labeling was performed as previously described in Riehl, Gasteroenterology, 118: 1106-16, 2000.

[3] = system: Trinitrobenzene Sulfonic Acid colitis; details: mouse, in vivo
[4] = system: indoleamine 2,3-dioxygenase mRNA; assay: Real-time PCR of indoleamine 2,3-dioxygenase mRNA in distal colon; type: in vivo, SJL/J mouse; details: TNBS colitis, Day 4; PBS 8 fold
Description: (§1) Six week old female SJL/J mice weighing approximately 20 grams, which were maintained at a controlled temperature and light/dark cycle in a pathogen free facility, were anesthetized with an intraperitoneal injection of a 10% Ketamine/Xylazine mixture. […] Mice were sacrificed 4 days after treatment for determination of indoleamine 2,3-dioxygenase protein and mRNA levels.

IFN-γ mRNA = assay: Real-time PCR of colonic IFN-γ mRNA
IL-12 mRNA = assay: Real-time PCR of colonic IL-12 mRNA; details: 4 days after TNBS, Example 5; placebo 20-fold
TNFα mRNA = assay: Real-time PCR of colonic TNFα mRNA; type: in vivo, mouse; details: TNBS colitis, Day 4; PBS 5 fold
interleukin (IL)-2 mRNA = assay: Real-time PCR of colonic IL-2 mRNA; details: 4 days after TNBS
TGFβ1 mRNA = assay: Real-time PCR of colonic TGFβ / TGFβ1 mRNA
[5] = system: Forkhead box P3 (Foxp3) mRNA; assay: Real-time PCR of colonic Foxp3 mRNA; type: in vivo, mouse; details: Day 4 of TNBS colitis
TNBS colitis = TNBS colitis treated with CTLA-4-Ig with or without 1-mT: weight, survival, clinical characteristics, histological and morphological scoring; type: in vivo, SJL/J mice
IL-1 mRNA = assay: Real-time PCR of colonic IL-1 mRNA; details: 4 days after TNBS
[6] = system: indoleamine 2,3-dioxygenase protein; assay: Western blotting of indoleamine 2,3-dioxygenase protein in distal colon lysates; type: in vivo, mouse; details: four days after TNBS, 1-mT versus placebo
Description: as §1
Western blotting (Bio-Rad, Hercules, Calif.) for determining indoleamine 2,3-dioxygenase protein amount was performed on whole colon lysates obtained from the distal colons of both control mice and mice treated with Trinitrobenzene Sulfonic Acid. For Lamina Propria Mononuclear cells, 1×10^6 cells were concentrated and loaded per lane. The samples were denatured and separated on an 8% Sodium Dodecyl Sulphate-Polyacrylamide (SDS-PAGE) gel. After electrophoresis, the separated proteins were then transferred to an Immobilon-P Transfer Membrane (Millipore, Be-dford, Mass.). […] The secondary antibodies were donkey anti-rabbit linked to horseradish peroxidase. After probing for indoleamine 2,3-dioxygenase protein, the membranes were stripped and reprobed for β-actin, which was used in addition to the protein assay to ensure equal protein loading.
Western blotting for indoleamine 2,3-dioxygenase was performed as follows. […] The protein was detected using ECL (Amersham). […]

Compound: rIFN-γ: recombinant interferon-γ (R&D systems)
- indoleamine 2,3-dioxygenase expression after incubation ([1]; B220+ enriched lamina propria mononuclear cell population): did express indoleamine 2,3-dioxygenase after incubation
- indoleamine 2,3-dioxygenase expression after incubation ([1]; B220-/MHCII- lamina propria mononuclear cell population): increased after incubation
- indoleamine 2,3-dioxygenase expression after incubation ([1]; MHCII+/B220- lamina propria mononuclear cell population): further induced
- indoleamine 2,3-dioxygenase protein induction ([1]; colon lamina propria mononuclear cells from STAT1-/- animals): severely blunted indoleamine 2,3-dioxygenase protein induction
- indoleamine 2,3-dioxygenase induction ([1]; colonic lamina propria mononuclear cells from C57BL/6 mice, 24 hours): increased significantly
- concentration required to maximally increase indoleamine 2,3-dioxygenase protein ([1]; lamina propria mononuclear cells): less than 1 ng/ml
- indoleamine 2,3-dioxygenase expression after incubation ([1]; unfractionated lamina propria mononuclear cells of untreated mice, 30 ng/mL, 24 hours): marked increase

Compound: Cn1cc(C[C@H](N)C(=O)O)c2ccccc21 [1-mT, 1-methyltryptophan]
- S phase lymphocytes in lymphoid aggregates (BrdU) versus placebo [2]: significantly more S phase lymphocytes
- effect on colonic morphology [3]: no effect on colonic morphology
- gross morphology of colon versus placebo [3]: significant gross morphologic differences
- histologic appearance versus placebo [3]: no significant histologic differences
- histologic scores versus placebo [3]: significantly higher
- survival rate [3]: 100%
- survival at 7 days after Trinitrobenzene Sulfonic Acid administration ([3]; sc): 20%
- increase in IDO mRNA expression over controls [4]: 2 fold
- IFN-γ expression increase over baseline (IFN-γ mRNA; 4 days after TNBS, Example 5, placebo 8-fold): 75 fold
- induction of IFN-γ mRNA (IFN-γ mRNA; TNBS colitis, Day 4): 15 fold
- IL-12 expression increase over baseline (IL-12 mRNA): 120 fold
- TNFα mRNA induction (TNFα mRNA): 16 fold
- IL-2 expression versus TNBS and placebo (interleukin (IL)-2 mRNA): significantly higher expression by orders of magnitude
- expression of TGFβ (TGFβ1 mRNA; 4 days after TNBS, Example 5, placebo about half of control): 1.5 times control values
- TGFβ1 mRNA induction (TGFβ1 mRNA; Day 4 of TNBS colitis): 0.8 fold
- induction of Foxp3 mRNA [5]: 11 fold
- morphological score (TNBS colitis; Day 4 of TNBS, PBS 2.9): 4.2
- histological score (TNBS colitis; Day 4 of TNBS, PBS 5.4): 6.6
- histology of distal colon (TNBS colitis; TNBS, Day 4): more transmural inflammation, loss of tissue architecture and vasculature, and outright necrosis
- survival rate (TNBS colitis; TNBS, by Day 4, PBS+TNBS 75%): 62.5%
- surviving animals with clinical characteristics of active TNBS colitis (hunched, piloerection), number of animals (TNBS colitis; TNBS, TNBS+PBS 7/9): 4/5
- surviving animals with clinical characteristics of TNBS colitis (TNBS colitis; TNBS, TNBS+PBS 78%): 80%
- mortality (animals dead of animals treated) (TNBS colitis; mouse, in vivo): 3 of 8
- mortality rate (TNBS colitis; mouse, in vivo): 37%
- IL-1 mRNA levels versus TNBS alone (IL-1 mRNA): markedly increased
- colonic indoleamine 2,3-dioxygenase protein amount [6]: no difference
